These results are taken from patent publication US20230080054A1 (ILDONG PHARMACEUTICAL CO., LTD., priority 2021, published 2023).

Bounds are passed on as bounds.

The experiment has as its target T1, human ANO6 (Homo sapiens, UniProt Q4KMQ2).
T1 construct: expressed in transfected cells
T1 sequence (Q4KMQ2 1-931 isoform Q4KMQ2-2): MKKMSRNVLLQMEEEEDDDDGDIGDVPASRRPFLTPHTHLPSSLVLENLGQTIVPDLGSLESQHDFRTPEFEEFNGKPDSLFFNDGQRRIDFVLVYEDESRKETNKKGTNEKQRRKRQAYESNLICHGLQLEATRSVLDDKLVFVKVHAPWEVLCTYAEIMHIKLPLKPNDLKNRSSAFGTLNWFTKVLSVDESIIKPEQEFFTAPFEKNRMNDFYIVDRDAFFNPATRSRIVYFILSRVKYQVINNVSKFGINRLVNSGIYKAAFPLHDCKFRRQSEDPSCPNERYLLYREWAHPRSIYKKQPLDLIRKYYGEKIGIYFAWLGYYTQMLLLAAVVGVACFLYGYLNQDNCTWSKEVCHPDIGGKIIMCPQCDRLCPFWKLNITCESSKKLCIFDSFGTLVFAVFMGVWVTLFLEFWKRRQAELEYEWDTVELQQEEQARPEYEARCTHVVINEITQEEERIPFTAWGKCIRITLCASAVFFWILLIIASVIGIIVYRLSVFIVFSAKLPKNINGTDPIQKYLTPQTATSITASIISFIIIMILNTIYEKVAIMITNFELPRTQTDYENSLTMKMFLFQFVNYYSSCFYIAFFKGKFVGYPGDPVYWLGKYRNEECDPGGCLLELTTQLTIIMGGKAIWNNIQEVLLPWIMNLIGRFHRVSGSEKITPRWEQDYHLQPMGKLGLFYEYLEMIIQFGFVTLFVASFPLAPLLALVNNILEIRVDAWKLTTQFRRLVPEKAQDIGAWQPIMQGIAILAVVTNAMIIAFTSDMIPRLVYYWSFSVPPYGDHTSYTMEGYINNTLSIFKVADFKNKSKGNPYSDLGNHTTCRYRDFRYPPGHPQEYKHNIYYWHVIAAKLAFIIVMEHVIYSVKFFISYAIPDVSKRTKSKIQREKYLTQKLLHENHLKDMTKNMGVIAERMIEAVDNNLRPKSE
Description: LACT C2 assay (phosphatidylserine scramblase function assay). It is filed as cell-based. The settings on record: FRT cells expressing human ANO6, 10 μM ionomycin; for inhibition at 0.1 µM: test compound 100 nM, read-out: Inhibition Level 100 nM; for inhibition at 1 µM: test compound 1 μM, read-out: Inhibition Level 1 μM. From the text:
Phosphatidylserine Scramblase Function Assay
1. Materials and Instruments
Ionomycin (Alomonelab, cat. #I-700), DAPI (Sigma-Aldrich, cat. #D8417), paraformaldehyde (Biosesang, cat. #P2031), Lionheart FX Automated Microscope (BioTek, Winooski), Python3 (Python Software Foundation), and OpenCV (Open Source Computer Vision Library).
Fisher rat thyroid (FRT) cells stably expressing human ANO6 (GenBank accession no. NP_001191732.1, provided by J. H. Nam, Dongguk University College of Medicine, Korea) were grown in DMEM/Ham's F-12 (1:1) medium with 10% FBS, 2 mM L-549 glutamine, 100 units/mL penicillin, and 100 μg/mL streptomycin at 37° C. and 5% CO2.
FRT cells stably expressing human ANO6 were plated in 96 well black-walled microplates at a density of 2×10^4 cells/well. After 24 hours incubation, cells were treated with the test compound (dissolved in DMSO) were treated to each well to become 1% v/v DMSO for 10 minutes, then 10 μM of ionomycin was applied. Finally each well was washed with 200 μL PBS after 10 minutes. After washout, the phosphatidylserine and nuclei were stained with PBS containing 500 nM Lactadherin-C2 (Lact-C2)-GFP, then cells were washed with 200 μL PBS. Cells were fixed with 4% paraformaldehyde for 5 minutes at room temperature. For morphological analysis, some cells were stained with fluorescently labelled DAPI for 15 minutes at room temperature. Quantitative analysis of the fluorescence intensity of Lact-C2-GFP was performed with Python3 and OpenCV. OpenCV was used to remove background and noise pixels, and the sum of all remaining pixel values was used to evaluate the fluorescence intensity of Lact-C2-GFP.
The inhibitory activity (%) of each of the test compounds was obtained by the following steps. In each row of 96 well plate, the inhibitory activity of each of the test compounds was calculated as percentages. The inhibitory activity of a negative control group to which neither compounds nor ionomycin were treated was set to be 100%, and the inhibitory activity of a positive control group to which ionomycin was treated and compounds were not treated was set to be 0%. The assay was performed in triplicate, and the results were averaged.

The term inhibition denotes the drop in the measured response relative to a control, in per cent. As to `Nc1cccc(CCNC(=O)c2cccc(Nc3ncc(-c4cccc(F)c4)cn3)c2)c1` [Compound 147, N-(3-aminophenethyl)-3-((5-(3-fluorophenyl)pyrimidin-2-yl)amino)benzamide], the inhibition at 0.1 µM is less than 30% and the inhibition at 1 µM is less than 30%. Turning to `COc1ccc([C@@H]2C[C@H]2NC(=O)c2cccc(Nc3ccc(-c4ccccc4)nn3)c2)cc1` [Compound 236, N-((1R,2S)-2-(4-methoxyphenyl)cyclopropyl)-3-((6-phenylpyridazin-3-yl)amino)benzamide], the inhibition at 0.1 µM is less than 30% and the inhibition at 1 µM is not below 60%.

Take `O=C(N[C@@H]1C[C@H]1c1ccc(F)c(F)c1)c1cccc(Nc2ccc(-c3ccccc3)nn2)c1` [Compound 234, N-((1R,2S)-2-(3,4-difluorophenyl)cyclopropyl)-3-((6-phenylpyridazin-3-yl)amino)benzamide]: the inhibition at 0.1 µM was 30 to 60% and the inhibition at 1 µM was not below 60%. Turning to `O=C(NC1(CO)CC1)c1cccc(Nc2ncc(-c3cccc(F)c3)cn2)c1` [Compound 219, 3-((5-(3-fluorophenyl)pyrimidin-2-yl)amino)-N-(1-(hydroxymethyl)cyclopropyl)benzamide], the inhibition at 0.1 µM was less than 30% and the inhibition at 1 µM was less than 30%.

On to `O=C(N[C@@H]1C[C@H]1c1ccc(F)cc1)c1cccc(Nc2ccc(-c3ccccc3)nn2)c1` [Compound 199], for which the inhibition at 0.1 µM was not below 60% and the inhibition at 1 µM is not below 60%. With `O=C(NC1(CO)CC1)c1cccc(Nc2ccc(-c3cccc(F)c3)nn2)c1` [Compound 224, 3-((6-(3-fluorophenyl)pyridazin-3-yl)amino)-N-(1-(hydroxymethyl)cyclopropyl)benzamide], the inhibition at 0.1 µM was less than 30% and the inhibition at 1 µM was less than 30%. As for `CN1CCN(c2ccc(CNC(=O)c3cccc(Nc4ccc(-c5ccccc5)nn4)c3)cc2)CC1` [Compound 197, N-(4-(4-methylpiperazin-1-yl)benzyl)-3-((6-phenylpyridazin-3-yl)amino)benzamide], the inhibition at 0.1 µM is less than 30% and the inhibition at 1 µM was less than 30%. Turning to `O=C(NCCc1ccccc1C(=O)O)c1cccc(Nc2ncc(-c3cccc(F)c3)cn2)c1` [Compound 132, 2-(2-(3-((5-(3-fluorophenyl)pyrimidin-2-yl)amino)benzamido)ethyl)benzoic acid], the inhibition at 0.1 µM is less than 30% and the inhibition at 1 µM was less than 30%.

On to `O=C(NCc1ccc(F)cc1)c1cccc(Nc2ncc(-c3cccc(F)c3)cn2)c1` [Compound A96], for which the inhibition at 0.1 µM was less than 30% and the inhibition at 1 µM is 30 to 60%. As for `O=C(Nc1cccc(F)c1)C1CCCC(Nc2ccc(-c3ccccc3)nn2)C1` (stereo not shown) [Compound 191, N-(3-fluorophenyl)-3-((6-phenylpyridazin-3-yl)amino)cyclohexane-1-carboxamide], the inhibition at 0.1 µM is less than 30%. Take `O=C(NCc1ccc(Br)cc1)c1cccc(Nc2ncc(-c3cccc(F)c3)cn2)c1` [Compound A100]: the inhibition at 0.1 µM was less than 30% and the inhibition at 1 µM lay within 30 to 60%.

As for `Cc1c(C2CC2NC(=O)c2cccc(Nc3ncc(-c4cccc(F)c4)cn3)c2)cnn1C` (stereo not shown) [Compound 150, N-(2-(1,5-dimethyl-1H-pyrazol-4-yl)cyclopropyl)-3-((5-(3-fluorophenyl)pyrimidin-2-yl)amino)benzamide], the inhibition at 0.1 µM is less than 30% and the inhibition at 1 µM is less than 30%. For the molecule `O=C(NCc1ccc(F)c(F)c1F)c1cccc(Nc2ncc(-c3cccc(F)c3)cn2)c1` [Compound 217, 3-((5-(3-fluorophenyl)pyrimidin-2-yl)amino)-N-(2,3,4-trifluorobenzyl)benzamide], the inhibition at 0.1 µM was less than 30% and the inhibition at 1 µM was 30 to 60%. With `O=C(Nc1cccc(F)c1)c1cccc(Nc2ccc(-c3ccncc3)cc2)c1` [Compound 162, N-(3-fluorophenyl)-3-((4-(pyridin-4-yl)phenyl)amino)benzamide], the inhibition at 0.1 µM was less than 30% and the inhibition at 1 µM was not below 60%.

Turning to `O=C(NC1(CO)CC1)c1cccc(Nc2ccc(-c3ccccc3)nn2)c1` [Compound 228, N-(1-(hydroxymethyl)cyclopropyl)-3-((6-phenylpyridazin-3-yl)amino)benzamide], the inhibition at 0.1 µM is less than 30% and the inhibition at 1 µM is less than 30%. As for `COc1cc(CNC(=O)c2cccc(Nc3ccc(-c4ccccc4)nn3)c2)ccc1F` [Compound 232, N-(4-fluoro-3-methoxybenzyl)-3-((6-phenylpyridazin-3-yl)amino)benzamide], the inhibition at 0.1 µM was less than 30% and the inhibition at 1 µM was less than 30%. As for `Nc1ccccc1NC(=O)c1cccc(Nc2ccc(-c3cccc(F)c3)cn2)c1` [Compound 143, N-(2-aminophenyl)-3-((5-(3-fluorophenyl)pyridin-2-yl)amino)benzamide], the inhibition at 0.1 µM is less than 30% and the inhibition at 1 µM is 30 to 60%. For `Cc1ccccc1CNC(=O)c1cccc(Nc2ncc(-c3cccc(F)c3)cn2)c1` [Compound A99], the inhibition at 0.1 µM was less than 30% and the inhibition at 1 µM was less than 30%. Take `O=C(NCc1ccc(F)c(F)c1)c1cccc(Nc2ccc(-c3ccccc3)nn2)c1` [Compound 230, N-(3,4-difluorobenzyl)-3-((6-phenylpyridazin-3-yl)amino)benzamide]: the inhibition at 0.1 µM is less than 30% and the inhibition at 1 µM was 30 to 60%. With `O=C(NCc1c(F)cc(F)cc1F)c1cccc(Nc2ncc(-c3cccc(F)c3)cn2)c1` [Compound 205, 3-((5-(3-fluorophenyl)pyrimidin-2-yl)amino)-N-(2,4,6-trifluorobenzyl)benzamide], the inhibition at 0.1 µM is less than 30% and the inhibition at 1 µM was in the range of 30 to 60%. The like results for `Cc1cc(F)ccc1CNC(=O)c1cccc(Nc2ccc(-c3ccccc3)nn2)c1` [Compound 210, N-(4-fluoro-2-methylbenzyl)-3-((6-phenylpyridazin-3-yl)amino)benzamide] were, in that order, less than 30% and not below 60%. Consider `Cc1ccc([C@@H]2C[C@H]2NC(=O)c2cccc(Nc3ccc(-c4ccccc4)nn3)c2)cc1` [Compound 235, 3-((6-phenylpyridazin-3-yl)amino)-N-((1R,2S)-2-(p-tolyl)cyclopropyl)benzamide], for which the inhibition at 0.1 µM was in the range of 30 to 60% and the inhibition at 1 µM is not below 60%.

For `O=C(NCCc1ccc(F)cc1)c1cccc(Nc2ccc(-c3ccccc3)nn2)c1` [Compound 198, N-(4-fluorophenethyl)-3-((6-phenylpyridazin-3-yl)amino)benzamide], the inhibition at 0.1 µM was less than 30% and the inhibition at 1 µM is not below 60%. For the molecule `COC(=O)c1ccccc1CCNC(=O)c1cccc(Nc2ncc(-c3cccc(F)c3)cn2)c1` [Compound 127, methyl 2-(2-(3-((5-(3-fluorophenyl)pyrimidin-2-yl)amino)benzamido)ethyl)benzoate], the inhibition at 0.1 µM is less than 30% and the inhibition at 1 µM is less than 30%. For `O=C(O)c1ccc(CCNC(=O)c2cccc(Nc3ncc(-c4cccc(F)c4)cn3)c2)cc1` [Compound 130, 4-(2-(3-((5-(3-fluorophenyl)pyrimidin-2-yl)amino)benzamido)ethyl)benzoic acid], the inhibition at 0.1 µM is less than 30% and the inhibition at 1 µM is less than 30%.
